Series [1] has as its system Radical scavenging activity. Description: Antioxidant activity assessed as DPPH free radical scavenging activity at 3.6 mM after 10 mins. The series is classed as functional.
Series [2] can be described thus: Cytotoxicity against human HeLa Ohio-1 cells. Format: cell-based.
In series [3] the test system is Radical scavenging activity. Briefly: Antioxidant activity assessed as DPPH free radical scavenging activity at 1.8 mM after 10 mins. Format: functional. On the technique in general: DPPH is a stable violet radical that fades when it is reduced.
Series [4] concerns Echovirus E13. Description: Antiviral activity against Echovirus 13 in human FL cells. The series is classed as functional, organism-based. The following applies: Enterovirus B.
The test system of series [5] is Radical scavenging activity. Description: Antioxidant activity assessed as DPPH free radical scavenging activity at 0.9 mM after 10 mins. Format: functional.
In series [6] the test system is Radical scavenging activity. Description: Antioxidant activity assessed as DPPH free radical scavenging activity at 0.9 mM after 20 mins. The series is classed as functional.
The nature of series [7]: Selectivity index, CC50 for human FL cells to IC50 for Echovirus 13. Format: functional.
Series [8] relates to Coxsackievirus B1. Briefly: Antiviral activity against Coxsackievirus B1 in human FL cells assessed as inhibition of cytopathic effect relative to control. Format: functional.
The test system of a further series is HeLa. Briefly: Cytotoxicity against human HeLa Ohio-1 cells.
Series [9] in a line: Selectivity index, CC50 for human HeLa Ohio-1 cells to IC50 for Human rhinovirus type 14. The series is classed as functional.
Series [10] deals with Radical scavenging activity. Briefly: Antioxidant activity assessed as DPPH free radical scavenging activity at 1.8 mM after 20 mins. The series is classed as functional.
The test system of series [11] is Radical scavenging activity. Description: Antioxidant activity assessed as DPPH free radical scavenging activity at 3.6 mM after 20 mins. The series is classed as functional.
The test system of series [12] is Poliovirus 1. Description: Antiviral activity against Poliovirus type 1 Lsc-2ab in human FL cells assessed as inhibition of cytopathic effect relative to control. Format: functional. A general note: Damage to the host cells serves as the signal in cytopathic effect assays.
Series [13] can be described thus: Cytotoxicity against human FL cells after 24 hrs. The series is classed as cell-based.
The subject of series [14] is Echovirus E13. Briefly: Antiviral activity against Echovirus 13 in human FL cells assessed as inhibition of cytopathic effect relative to control. The series is classed as functional.
Series [15] concerns Poliovirus 1. Description: Antiviral activity against Poliovirus type 1 Lsc-2ab in human FL cells. The series is classed as functional, organism-based. The following applies: Enterovirus C.
Series [16] is described as follows: Selectivity index, CC50 for human FL cells to IC50 for Poliovirus type 1 Lsc-2ab. Format: functional.
The subject of series [17] is Coxsackievirus B1. Description: Antiviral activity against Coxsackievirus B1 in human FL cells. The following applies: Enterovirus B. Format: functional, organism-based.
A short description of series [18]: Selectivity index, CC50 for human FL cells to IC50 for Coxsackievirus B1. Format: functional.

For orientation: IC50 means the point on the concentration scale where inhibition reaches its midpoint. High values mean weaker potency, low ones greater potency. As usually defined, the CC50 is the concentration giving 50% cytotoxicity. Lower therefore signals greater toxicity to the cells. With `COc1cc2c(cc1OC)-c1c(OC)c(OC)c(CNC(=O)/C=C/c3ccc(O)cc3)c3c1C(C2)N(C)CC3` (centres undefined), the Activity came to 3.2% in series [1]; 2% in [3]; 1.8% in series [5]; 1.8% in series [6]; 2.5% in series [10]; 4.8% in series [11]. The IC50 is 13 µM in series [2] and 32 µM in the series on Echovirus E13 [4]. The “Ratio CC50/IC50” value is 5 in series [7] and 11 in series [9]. Moreover, the figures for the “inhibition (INH)” value in the series on Coxsackievirus B1 [8] and with Poliovirus 1 [12] were 0% and below 50%, respectively. The same compound returned a CC50 with HeLa of 143 µM. This compound came in with a CC50 at 24 h in series [13] of 160 µM.
Take `O=C(O)/C=C/c1ccccc1O`: the Activity amounted to 3.3% in series [1]; 2.2% in [3]; 2.1% in series [5]; 2.4% in [6]; 2.7% in series [10]; 3.6% in series [11].
For `O=C(O)/C=C/c1ccc(O)cc1`, the Activity in [1] amounted to 4.5%; in series [3] it was 3.7%; in [5], 2.1%; in series [6], 2.9%; in [10], 4.7%; in series [11] it was 6.1%.
As for `COc1cc2c(cc1OC)-c1c(OC)c(OC)c(CNC(=O)/C=C/c3ccccc3O)c3c1C(C2)N(C)CC3` (centres undefined), the Activity in [1] worked out at 3.3%; in [3], 2.3%; in series [5] it was 1.1%; in series [6], 0.8%; in series [10] it was 3.6%; in [11], 4.2%. The compound further had an IC50 in series [2] of 15 µM. Besides, the “inhibition (INH)” value is given as 0% with Coxsackievirus B1 [8], 0% in the series on Echovirus E13 [14] and “<=25%” in the series on Poliovirus 1 [12]. Moreover, it took 155 µM to reach half-maximal cytotoxicity in the series with HeLa (CC50). In [9], the “Ratio CC50/IC50” value came to 10.3. Also, the CC50 at 24 h in series [13] stood at 152 µM.
Consider `COc1cc(/C=C/C(=O)NCc2c3c4c(c(OC)c2OC)-c2cc(OC)c(OC)cc2CC4N(C)CC3)ccc1O` (centres undefined), for which the Activity in series [1] was found to be 31.2%; in [3], 16.6%; in series [5], 8.3%; in series [6] it was 10.1%; in [10], 19.4%; in [11] it was 36.1%. In addition, the IC50 in [2] came out at 12 µM. Also, the “inhibition (INH)” value in the series on Coxsackievirus B1 [8] is 0%; with Echovirus E13 [14], “<=25%”; in the series with Poliovirus 1 [12] it was 0%. For the same compound, in the series on HeLa, the CC50 was 113 µM. The “Ratio CC50/IC50” value in [9] came out at 9.4. The midpoint of cytotoxicity in [13], the CC50 at 24 h, lay at 105 µM.
In the case of `COc1cc2c(cc1OC)-c1c(OC)c(OC)c(CNC(=O)/C=C/c3cc(OC)c(O)c(OC)c3)c3c1C(C2)N(C)CC3` (centres undefined), the Activity in series [1] turned out to be 26.3%; in series [3], 14.4%; in [5], 8%; in series [6] it was 10.5%; in series [10], 18%; in [11], 31.6%. Moreover, inhibition in series [2] was half-maximal at 28 µM (IC50). Besides, the “inhibition (INH)” value with Coxsackievirus B1 [8], in the series on Echovirus E13 [14] and with Poliovirus 1 [12] was 0% each time. The compound further yielded a CC50 with HeLa of 125 µM. For the same compound, the “Ratio CC50/IC50” value in [9] is reported as 4.5. In addition, the CC50 at 24 h in series [13] stood at 112 µM.
In the case of `COc1cc(/C=C/C(=O)O)cc(OC)c1O`, the Activity in [1] is 69%; in series [3] it was 26.5%; in [5] it was 16.1%; in [6], 17.2%; in series [10] it was 31.9%; in [11], 69.6%.
In the case of `COc1cc(/C=C/C(=O)O)ccc1O`, the Activity in series [1] was determined as 36.7%; in [3], 21%; in series [5], 12%; in series [6], 13.8%; in series [10], 25.1%; in series [11] it was 44.3%.
As to `COc1cc2c(cc1OC)-c1c(OC)c(OC)cc3c1[C@H](C2)N(C)CC3` [GLAUCINE], the half-inhibitory concentration (IC50) in the series with Poliovirus 1 [15] is 60 µM; in [2], 22 µM; in the series on Coxsackievirus B1 [17], 21 µM; in the series on Echovirus E13 [4] it was 60 µM. Further, the Activity in series [1] is 1.4%; in series [3], 1.1%; in series [5], 0.8%; in series [6] it was 1.2%; in series [10] it was 1.3%; in series [11], 1.6%. Further, the “Ratio CC50/IC50” value in [16] was determined as 1.9; in series [7], 1.9; in series [18], 5.5; in series [9] it was 8.3. The compound also gave a CC50 in the series on HeLa of 182 µM. Further, the midpoint of cytotoxicity in series [13], the CC50 at 24 h, lay at 115 µM.
With `Cc1cc(CCCCCCCOc2ccc(C3=NCCO3)cc2)on1` [DISOXARIL], the IC50 was determined as 2 µM in the series with Poliovirus 1 [15], 1.5 µM in series [2], 2 µM in the series on Coxsackievirus B1 [17] and 1.3 µM in the series on Echovirus E13 [4]. Further, the “Ratio CC50/IC50” value in [16] was determined as 12.5; in series [7] it was 19.2; in series [18] it was 12.5; in series [9], 14. Moreover, the CC50 in the series on HeLa is 21 µM. In [13], this compound registered a CC50 at 24 h of 25 µM.
As to `COc1cc2c(cc1OC)-c1c(OC)c(OC)cc3ccnc(c13)C2=O` [OXOGLAUCINE], the IC50 in the series with Poliovirus 1 [15] is 1.2 µM; in series [2], 0.3 µM; in the series on Coxsackievirus B1 [17] it was 2.5 µM; with Echovirus E13 [4] it was 0.5 µM. Also, the “Ratio CC50/IC50” value in series [16] is reported as 43.3; in [7], 104; in [18] it was 20.8; in series [9], 170. Also, in the series with HeLa, the CC50 was 51 µM. For the same compound, the CC50 at 24 h in series [13] turned out to be 52 µM.
In the case of `COc1cc2c(cc1OC)-c1c(OC)c(OC)c(CN)c3c1C(C2)N(C)CC3` (centres undefined), the Activity in [1] turned out to be 2.9%; in series [3], 2.2%; in series [5], 1.6%; in [6] it was 2.5%; in [10], 3%; in [11], 3.8%.

Values taken from ChEMBL document CHEMBL1155797, “Cinnamoyl- and hydroxycinnamoyl amides of glaucine and their antioxidative and antiviral activities” (Bioorg Med Chem, 2008).
